Test results: ChEMBL document CHEMBL5260859, “Discovery and structure-activity relationship study of 2-piperazinyl-benzothiazole derivatives as potent and selective PPARδ agonists” (Bioorg Med Chem, 2023)

Assays:
[1] = target: T1, Peroxisome proliferator-activated receptor delta (Homo sapiens, UniProt Q03181); experiment: Agonist activity at Gal4-fused human PPAR-delta ligand binding domain expressed in CHO-K1 cells assessed as receptor transactivation incubated for 24 to 48 hrs by luciferase reporter gene assay; assay type: cell-based
T1 sequence (Q03181 whole entry): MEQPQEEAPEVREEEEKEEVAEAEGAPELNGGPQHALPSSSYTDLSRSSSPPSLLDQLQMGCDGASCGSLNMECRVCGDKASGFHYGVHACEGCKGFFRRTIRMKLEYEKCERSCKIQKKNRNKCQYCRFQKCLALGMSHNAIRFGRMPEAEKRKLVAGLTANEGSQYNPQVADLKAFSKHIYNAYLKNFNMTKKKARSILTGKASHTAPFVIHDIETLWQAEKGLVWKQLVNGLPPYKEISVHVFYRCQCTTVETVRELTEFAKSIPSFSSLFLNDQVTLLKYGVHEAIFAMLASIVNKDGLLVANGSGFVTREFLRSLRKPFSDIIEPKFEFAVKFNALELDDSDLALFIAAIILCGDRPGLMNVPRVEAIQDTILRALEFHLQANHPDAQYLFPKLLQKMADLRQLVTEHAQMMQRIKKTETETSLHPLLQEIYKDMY

[2] = target: T2, Peroxisome proliferator-activated receptor delta (Homo sapiens) (UniProt Q03181); experiment: Agonist activity at Gal4-fused human PPAR-delta ligand binding domain expressed in CHO-K1 cells assessed as receptor transactivation incubated for 24 to 48 hrs by luciferase reporter gene assay relative to control; assay type: cell-based; settings: time lower 24.0 hrs, time upper […]
T2 sequence (whole entry): T1 sequence (Q03181 whole entry)

[3] = target: T3, Peroxisome proliferator-activated receptor alpha (Homo sapiens) (UniProt Q07869); experiment: Agonist activity at Gal4-fused human PPAR-alpha ligand binding domain expressed in CHO-K1 cells assessed as receptor transactivation incubated for 24 to 48 hrs by luciferase reporter gene assay relative to control; assay type: cell-based; settings: time lower 24.0 hrs, time upper […]
T3 sequence (whole entry): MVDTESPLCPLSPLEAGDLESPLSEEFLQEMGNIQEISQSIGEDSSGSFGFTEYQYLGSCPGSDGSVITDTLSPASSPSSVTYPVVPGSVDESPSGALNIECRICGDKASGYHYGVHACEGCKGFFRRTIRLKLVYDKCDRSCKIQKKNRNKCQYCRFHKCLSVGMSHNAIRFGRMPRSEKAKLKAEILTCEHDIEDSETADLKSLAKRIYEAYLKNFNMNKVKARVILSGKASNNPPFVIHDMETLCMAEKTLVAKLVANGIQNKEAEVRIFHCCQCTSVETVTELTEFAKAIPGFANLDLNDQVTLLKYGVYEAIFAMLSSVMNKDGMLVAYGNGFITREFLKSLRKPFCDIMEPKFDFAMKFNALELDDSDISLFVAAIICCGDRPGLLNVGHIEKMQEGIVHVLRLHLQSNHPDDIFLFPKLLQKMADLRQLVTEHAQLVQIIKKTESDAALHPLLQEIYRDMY

[4] = target: T4, Peroxisome proliferator-activated receptor delta (Mus musculus, UniProt P35396); experiment: Agonist activity at Gal4-fused mouse PPAR-delta ligand binding domain expressed in CHO-K1 cells assessed as receptor transactivation incubated for 24 to 48 hrs by luciferase reporter gene assay; assay type: cell-based
T4 sequence (P35396 whole entry): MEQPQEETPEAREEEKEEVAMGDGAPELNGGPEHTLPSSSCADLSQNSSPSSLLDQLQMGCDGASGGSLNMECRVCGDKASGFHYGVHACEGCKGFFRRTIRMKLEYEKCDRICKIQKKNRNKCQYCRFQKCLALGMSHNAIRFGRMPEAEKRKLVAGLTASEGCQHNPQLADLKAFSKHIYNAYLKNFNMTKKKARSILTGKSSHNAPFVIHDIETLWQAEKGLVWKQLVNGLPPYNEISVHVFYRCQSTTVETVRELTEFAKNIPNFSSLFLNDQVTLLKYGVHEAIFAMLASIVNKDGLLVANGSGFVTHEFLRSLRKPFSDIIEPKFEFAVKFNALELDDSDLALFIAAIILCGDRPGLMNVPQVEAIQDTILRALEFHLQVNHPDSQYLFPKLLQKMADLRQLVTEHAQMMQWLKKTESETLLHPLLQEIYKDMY

[5] = target: T5, Peroxisome proliferator-activated receptor delta (Mus musculus) (UniProt P35396); experiment: Agonist activity at Gal4-fused mouse PPAR-delta ligand binding domain expressed in CHO-K1 cells assessed as receptor transactivation incubated for 24 to 48 hrs by luciferase reporter gene assay relative to control; assay type: cell-based; settings: time lower 24.0 hrs, time upper […]
T5 sequence (whole entry): T4 sequence (P35396 whole entry)

[6] = target: T6, Peroxisome proliferator-activated receptor alpha (Mus musculus) (UniProt P23204); experiment: Agonist activity at Gal4-fused mouse PPAR-alpha ligand binding domain expressed in CHO-K1 cells assessed as receptor transactivation incubated for 24 to 48 hrs by luciferase reporter gene assay relative to control; assay type: cell-based; settings: time lower 24.0 hrs, time upper […]
T6 sequence (whole entry): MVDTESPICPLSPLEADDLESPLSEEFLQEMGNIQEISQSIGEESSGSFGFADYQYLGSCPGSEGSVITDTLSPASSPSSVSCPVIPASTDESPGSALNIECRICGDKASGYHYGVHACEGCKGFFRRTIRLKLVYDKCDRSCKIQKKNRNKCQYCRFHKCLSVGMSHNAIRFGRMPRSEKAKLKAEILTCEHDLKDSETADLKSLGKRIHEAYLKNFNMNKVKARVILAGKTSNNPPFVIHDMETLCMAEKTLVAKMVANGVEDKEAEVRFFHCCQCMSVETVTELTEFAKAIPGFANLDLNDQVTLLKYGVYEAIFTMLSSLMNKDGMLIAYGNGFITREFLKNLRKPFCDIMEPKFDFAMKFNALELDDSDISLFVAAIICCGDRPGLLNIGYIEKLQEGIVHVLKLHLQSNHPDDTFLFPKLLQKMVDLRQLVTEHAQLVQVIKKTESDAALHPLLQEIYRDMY

[7] = AUC in rat at 0.5 mg/kg, iv; assay type: ADME, organism-based; design: dose 0.5 mg/kg, route iv; settings: in vivo
[8] = Clearance in rat at 0.5 mg/kg, iv; assay type: ADME, organism-based; settings: in vivo
[9] = Half life in rat at 0.5 mg/kg, iv; assay type: ADME, organism-based; settings: in vivo
[10] = AUC in rat at 1 mg/kg, po; assay type: ADME, organism-based; design: dose 1 mg/kg, route po; settings: in vivo
[11] = Cmax in rat at 1 mg/kg, po; assay type: ADME, organism-based; design: dose 1 mg/kg, route po; settings: in vivo
[12] = Oral bioavailability in rat at 1 mg/kg; assay type: ADME, organism-based; settings: in vivo
[13] = tested on: Mus musculus; experiment: Antihypercholesterolemic activity against hApoB100/hCETP-dTg hypercholesterolemic mouse model assessed as serum HDL-C level at 3 mg/kg, po administered once daily for 8 days; assay type: functional; settings: time 8 day
[14] = tested on: Mus musculus; experiment: Antihypercholesterolemic activity against hApoB100/hCETP-dTg hypercholesterolemic mouse model assessed as serum total cholesterol level at 3 mg/kg, po administered once daily for 8 days; assay type: functional; settings: time 8 day
[15] = tested on: Mus musculus; experiment: Antihypercholesterolemic activity against hApoB100/hCETP-dTg hypercholesterolemic mouse model assessed as serum non-HDL-C level at 3 mg/kg, po administered once daily for 8 days; assay type: functional; settings: time 8 day
[16] = target: T7, Peroxisome proliferator-activated receptor alpha (Mus musculus, UniProt P23204); experiment: Agonist activity at Gal4-fused mouse PPAR-alpha ligand binding domain expressed in CHO-K1 cells assessed as receptor transactivation incubated for 24 to 48 hrs by luciferase reporter gene assay; assay type: cell-based
T7 sequence (P23204 whole entry): T6 sequence (whole entry)

[17] = target: T8, Peroxisome proliferator-activated receptor gamma (Homo sapiens, UniProt P37231); assay type: cell-based, CHO-K1
T8 sequence (P37231 whole entry): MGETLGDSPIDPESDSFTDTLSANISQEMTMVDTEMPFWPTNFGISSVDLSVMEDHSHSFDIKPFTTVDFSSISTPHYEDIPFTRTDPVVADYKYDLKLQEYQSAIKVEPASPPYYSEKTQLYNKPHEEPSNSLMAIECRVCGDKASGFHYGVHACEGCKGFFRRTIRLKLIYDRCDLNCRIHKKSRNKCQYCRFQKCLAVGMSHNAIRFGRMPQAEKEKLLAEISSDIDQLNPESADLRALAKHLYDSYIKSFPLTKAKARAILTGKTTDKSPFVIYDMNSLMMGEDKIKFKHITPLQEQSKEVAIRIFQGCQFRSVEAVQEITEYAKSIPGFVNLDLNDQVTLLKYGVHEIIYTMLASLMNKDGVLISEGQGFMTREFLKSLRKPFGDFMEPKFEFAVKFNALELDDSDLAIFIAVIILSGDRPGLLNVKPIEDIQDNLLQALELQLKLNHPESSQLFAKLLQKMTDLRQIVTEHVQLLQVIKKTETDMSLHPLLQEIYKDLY

[18] = organism: Mus musculus; experiment: Selectivity ratio of EC50 for agonist activity at Gal4-fused mouse PPAR-alpha ligand binding domain expressed in CHO-K1 cells to EC50 for agonist activity at Gal4-fused mouse PPAR-delta ligand binding domain expressed in CHO-K1 cells; assay type: cell-based
[19] = target: T9, Peroxisome proliferator-activated receptor gamma (Mus musculus, UniProt P37238); experiment: Agonist activity at Gal4-fused mouse PPAR-gamma ligand binding domain expressed in CHO-K1 cells assessed as receptor transactivation incubated for 24 to 48 hrs by luciferase reporter gene assay; assay type: cell-based
T9 sequence (P37238 whole entry): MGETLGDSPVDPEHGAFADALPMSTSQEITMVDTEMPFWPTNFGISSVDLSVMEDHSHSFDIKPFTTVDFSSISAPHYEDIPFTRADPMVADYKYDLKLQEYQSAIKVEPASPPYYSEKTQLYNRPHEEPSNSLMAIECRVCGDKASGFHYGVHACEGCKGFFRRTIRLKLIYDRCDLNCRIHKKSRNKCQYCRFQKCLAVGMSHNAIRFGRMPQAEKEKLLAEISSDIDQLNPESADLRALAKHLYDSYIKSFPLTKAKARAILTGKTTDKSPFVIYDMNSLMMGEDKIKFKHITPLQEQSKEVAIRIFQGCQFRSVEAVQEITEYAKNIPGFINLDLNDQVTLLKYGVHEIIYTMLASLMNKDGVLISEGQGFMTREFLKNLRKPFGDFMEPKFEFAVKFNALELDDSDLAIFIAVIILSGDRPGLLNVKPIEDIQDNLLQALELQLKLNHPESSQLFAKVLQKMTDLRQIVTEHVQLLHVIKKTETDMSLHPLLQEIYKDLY

[20] = organism: Mus musculus; experiment: Selectivity ratio of EC50 for agonist activity at Gal4-fused mouse PPAR-gamma ligand binding domain expressed in CHO-K1 cells to EC50 for agonist activity at Gal4-fused mouse PPAR-delta ligand binding domain expressed in CHO-K1 cells; assay type: cell-based

| SMILES | EC50 [1] | Emax [2] | Emax [3] | EC50 [4] | Emax [5] | Emax [6] | AUC [7] | clearance [8] | half-life [9] | AUC [10] | Cmax [11] | bioavailability [12] | EC50 [16] | EC50 [17] | EC50 [19] | Activity [13] | Activity [14] | Activity [15] | Ratio EC50 [18] | Ratio EC50 [20] |
| --- | --- | --- | --- | --- | --- | --- | --- | --- | --- | --- | --- | --- | --- | --- | --- | --- | --- | --- | --- | --- |
| Cc1cc(CC(=O)O)cc(CN2CCN(c3nc4ccc(C(F)(F)F)cc4s3)[C@@H](C(C)C)C2)c1 | 4.1 nM | 18.6% | – | 12 nM | 25% | 10.3% | 26700 ng·h/mL | 0.31 mL/min/kg | 9.5 h | 45900 ng·h/mL | 2050 ng/mL | 85.8% | 2000 nM | – | – | 188% | 72% | 56% | – | – |
| Cc1cc(CC(=O)O)cc(CN2CCN(c3nc4ccc(C(F)(F)F)cc4s3)[C@@H](CC(C)C)C2)c1 | 19 nM | 13.6% | 1.4% | 79 nM | 17.9% | 4.5% | – | – | – | – | – | – | 5800 nM | 1500 nM | – | – | – | – | 73 | – |
| C[C@H]1CN(c2nc3ccc(C(F)(F)F)cc3s2)CCN1CCOc1cc(CC(=O)O)ccc1Cl | – | – | – | 6.9 nM | 34% | 7.2% | 190 ng·h/mL | 45.6 mL/min/kg | 1.4 h | 101 ng·h/mL | 11 ng/mL | 26.4% | 2700 nM | – | 240 nM | 113% | 76% | 80% | – | – |
| CC(C)C[C@H]1CN(c2nc3ccc(Cl)cc3s2)CCC1CCOc1cc(CC(=O)O)ccc1Cl (stereo partly specified) | 17 nM | 23.2% | 3.1% | 61 nM | 28.3% | 4.6% | – | – | – | – | – | – | – | 1100 nM | 660 nM | – | – | – | – | 11 |

Continued, in another order:

| EC50 [1] | Emax [2] | Emax [3] | EC50 [4] | Emax [5] | Emax [6] | AUC [7] | clearance [8] | half-life [9] | AUC [10] | Cmax [11] | bioavailability [12] | EC50 [16] | EC50 [17] | EC50 [19] | SMILES | Activity [13] | Activity [14] | Activity [15] | Ratio EC50 [18] | Ratio EC50 [20] |
| --- | --- | --- | --- | --- | --- | --- | --- | --- | --- | --- | --- | --- | --- | --- | --- | --- | --- | --- | --- | --- |
| 4.3 nM | 17.5% | 1.6% | 6.9 nM | 24.8% | 1.4% | 5680 ng·h/mL | 1.47 mL/min/kg | 6.7 h | 7140 ng·h/mL | 895 ng/mL | 62.9% | – | – | – | Cc1cc(CC(=O)O)cc(CN2CCN(c3nc4ccc(C(F)(F)F)cc4s3)[C@H](CC(C)C)C2)c1 | 145% | 83% | 75% | – | – |
| – | – | – | 6.1 nM | 31.7% | 8% | 399 ng·h/mL | 21.5 mL/min/kg | 2.7 h | 151 ng·h/mL | 10 ng/mL | 18.9% | 2500 nM | – | 240 nM | CC[C@H]1CN(c2nc3ccc(C(F)(F)F)cc3s2)CCN1CCOc1cc(CC(=O)O)ccc1Cl | 156% | 94% | 82% | – | – |
